We go through eight molecules from ChEMBL document CHEMBL4680276, “Structure-Activity Relationships of Daptomycin Lipopeptides” (2020).

A word on the MIC: it is the lowest concentration that inhibits growth of the organism. One may read the MIC90 as an inhibitory concentration at the 90% level, which refers to growth in some studies and to a panel of isolates in others.

Assay type in all cases: functional
A short description of test [1]: Antibacterial activity against Streptomyces sp. WAC4713 measured up to 55 hrs. The note with it: Streptomyces sp. WAC4713, 55 h; time hrs <=55.
For test [2], the system named is Bacillus subtilis. As to the kind of experiment: Antibacterial activity against Bacillus subtilis PY79 incubated for 18 hrs in presence of 73.6 mg/L Ca2+ by visual method.
The test system of test [3] is Bacillus subtilis. As to the kind of experiment: Antibacterial activity against Bacillus subtilis ATCC1046 in presence of 1.25 mM Ca2+ by serial dilution method. Particulars: time 18 hrs.
In the next test the test system is Staphylococcus aureus. The test is described as follows: Antibacterial activity against Staphylococcus aureus ATCC 29213 incubated for 12 hrs in presence of 1.25 mM Ca2+ by broth microdilution method. For orientation: Broth dilution looks for growth in wells or tubes with falling amounts of substance.

In brackets after ≈: the same amount, converted by molar mass.

Consider `CCCCCCCCCC(=O)N[C@@H](Cc1c[nH]c2ccccc12)C(=O)N[C@H](CC(N)=O)C(=O)N[C@@H](CC(=O)O)C(=O)N[C@@H]1C(=O)NCC(=O)N[C@@H](CCCN)C(=O)N[C@@H](CC(=O)O)C(=O)N[C@H](C)C(=O)N[C@@H](CC(=O)O)C(=O)NCC(=O)N[C@H](CO)C(=O)N[C@@H]([C@H](C)CC(=O)O)C(=O)N[C@@H](CC(=O)c2ccccc2N)C(=O)O[C@@H]1C`, for which the lowest concentration to inhibit growth in test [1] (MIC) was 512 µg/mL (≈ 316 µM). Moreover, the MIC90 in the test with Bacillus subtilis [2] worked out at 2 µg/mL. With `CCCCCCCCCC(=O)N[C@@H](Cc1c[nH]c2ccccc12)C(=O)N[C@H](CC(N)=O)C(=O)N[C@@H](CC(N)=O)C(=O)N[C@@H]1C(=O)NCC(=O)N[C@@H](CCCCN)C(=O)N[C@@H](CC(=O)O)C(=O)N[C@H](C)C(=O)N[C@@H](CC(=O)O)C(=O)NCC(=O)N[C@H](CO)C(=O)N[C@@H](CCC(=O)O)C(=O)N[C@@H](Cc2c[nH]c3ccccc23)C(=O)O[C@@H]1C`, the MIC in the test with Bacillus subtilis [3] came out at 1.5 µg/mL. Take `CCCCCCCCCC(=O)N[C@@H](Cc1c[nH]c2ccccc12)C(=O)N[C@H](CC(=O)O)C(=O)N[C@@H](CC(N)=O)C(=O)N[C@@H]1C(=O)N(C)CC(=O)N[C@@H](CCCN)C(=O)N[C@@H](CC(=O)O)C(=O)N[C@H](C)C(=O)N[C@@H](CC(=O)O)C(=O)NCC(=O)N[C@H](CO)C(=O)N[C@@H](CCC(=O)O)C(=O)N[C@@H](CC(=O)c2ccccc2N)C(=O)O[C@@H]1C`: in the test on Bacillus subtilis [2], the MIC90 was found to be 20 µg/mL. On to `CCCCCCCCCC(=O)N[C@@H](Cc1c[nH]c2ccccc12)C(=O)N[C@H](CCC(=O)O)C(=O)N[C@@H](CC(N)=O)C(=O)N[C@@H]1C(=O)N(C)CC(=O)N[C@@H](C)C(=O)N[C@@H](CC(=O)O)C(=O)N[C@H](CCCCN)C(=O)N[C@@H](CC(=O)O)C(=O)NCC(=O)N[C@H](CC(N)=O)C(=O)N[C@@H](CCC(=O)O)C(=O)N[C@@H]([C@@H](C)CC)C(=O)O[C@@H]1C`, for which the MIC90 in the test with Bacillus subtilis [2] was found to be 25 µg/mL. `CCCCCCCCCC(=O)N[C@@H](Cc1c[nH]c2ccccc12)C(=O)N[C@H](CCC(=O)O)C(=O)N[C@@H](CC(N)=O)C(=O)N[C@H]1COC(=O)[C@H]([C@@H](C)CC)NC(=O)[C@H](CCC(=O)O)NC(=O)[C@@H](CC(N)=O)NC(=O)CNC(=O)[C@H](CC(=O)O)NC(=O)[C@@H](CCCCN)NC(=O)[C@H](CC(=O)O)NC(=O)[C@H](C)NC(=O)CN(C)C1=O`: in the test with Bacillus subtilis [2], the MIC90 was determined as 25 µg/mL. On the same count and under the same terms, next, `CCCCCCCCCC(=O)N[C@@H](Cc1c[nH]c2ccccc12)C(=O)N[C@H](CC(=O)O)C(=O)N[C@@H](CC(N)=O)C(=O)N[C@@H]1C(=O)N(C)CC(=O)N[C@@H](C)C(=O)N[C@@H](CC(=O)O)C(=O)N[C@H](C)C(=O)N[C@@H](CC(=O)O)C(=O)NCC(=O)N[C@H](CO)C(=O)N[C@@H](CCC(=O)O)C(=O)N[C@@H](CC(=O)c2ccccc2N)C(=O)O[C@@H]1C`: 20 µg/mL.

For `CCCCCCCCCC(=O)N[C@@H](Cc1c[nH]c2ccccc12)C(=O)N[C@H](CC(N)=O)C(=O)N[C@@H](CC(=O)O)C(=O)N[C@@H]1C(=O)NCC(=O)N[C@@H](CCCCN)C(=O)N[C@@H](CC(=O)O)C(=O)N[C@H](C)C(=O)N[C@@H](CC(=O)O)C(=O)NCC(=O)N[C@H](CO)C(=O)N[C@@H](CCC(=O)O)C(=O)N[C@@H](CC(=O)c2ccccc2N)C(=O)O[C@@H]1C`, in the test on Staphylococcus aureus, the MIC stood at 64 µg/mL.

As for `CCCCCCCCCC(=O)N[C@@H](Cc1c[nH]c2ccccc12)C(=O)N[C@@H](CC(N)=O)C(=O)N[C@@H](CC(=O)O)C(=O)N[C@@H]1C(=O)NCC(=O)N[C@@H](CCCN)C(=O)N[C@@H](CC(=O)O)C(=O)N[C@H](C)C(=O)N[C@@H](CC(=O)O)C(=O)NCC(=O)N[C@H](CO)C(=O)N[C@H](CCC(=O)O)C(=O)N[C@@H](CC(=O)c2ccccc2N)C(=O)O[C@@H]1C`, in the test with Bacillus subtilis [2], the MIC90 was determined as 11 µg/mL.
